From PubChem BioAssay AID1963875 (Molecular Pharmacology Branch, DTP, NCI, 2024)

Test system: KRAS-mutant PDC complex spheroid viability
Experiment: Anticancer human tumor 186277-243-T-J2-PDC patient-derived colon adenocarcinoma cell line growth inhibition [KRAS2]
Conditions: for IC50: curve of first compound; for viability, T/C: stronger effect = lower value
Outline: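 KRAS-mutant tumor cells were grown as spheroids with HUVEC endothelial cells and human MSCs as stroma. Targeted agents were tested alone and with KRAS pathway inhibitors. Doses started at or near clinical Cmax, or 10 microM, descending half-log.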

[1] = second compound 0.1 µM, first compound 0.01 µM
[2] = second compound 0.1 µM, first compound 0.0316 µM
[3] = second compound 0.1 µM, first compound 0.1 µM
[4] = second compound 0.1 µM, first compound 0.316 µM
[5] = second compound 0.1 µM, first compound 1 µM
[6] = second compound 0.1 µM, first compound 3.16 µM
[7] = second compound 0.316 µM, first compound 0.01 µM
[8] = second compound 0.316 µM, first compound 0.0316 µM
[9] = second compound 0.316 µM, first compound 0.1 µM
[10] = second compound 0.316 µM, first compound 0.316 µM
[11] = second compound 0.316 µM, first compound 1 µM
[12] = second compound 0.316 µM, first compound 3.16 µM
[13] = second compound 1 µM, first compound 0.01 µM
[14] = second compound 1 µM, first compound 0.0316 µM
[15] = second compound 1 µM, first compound 0.1 µM
[16] = second compound 1 µM, first compound 0.316 µM
[17] = second compound 1 µM, first compound 1 µM
[18] = second compound 1 µM, first compound 3.16 µM
[19] = second compound 3.16 µM, first compound 0.01 µM
[20] = second compound 3.16 µM, first compound 0.0316 µM
[21] = second compound 3.16 µM, first compound 0.1 µM
[22] = second compound 3.16 µM, first compound 0.316 µM
[23] = second compound 3.16 µM, first compound 1 µM
[24] = second compound 3.16 µM, first compound 3.16 µM
[25] = second compound 10 µM, first compound 0.01 µM
[26] = second compound 10 µM, first compound 0.0316 µM
[27] = second compound 10 µM, first compound 0.1 µM
[28] = second compound 10 µM, first compound 0.316 µM
[29] = second compound 10 µM, first compound 1 µM
[30] = second compound 10 µM, first compound 3.16 µM
[31] = second compound 0.1 µM, first compound 10 µM
[32] = second compound 0.316 µM, first compound 10 µM
[33] = second compound 1 µM, first compound 10 µM
[34] = second compound 3.16 µM, first compound 10 µM
[35] = second compound 10 µM, first compound 10 µM
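Wherever viability, T/C is given: viability read after seven days of compound exposure; 100% = DMSO vehicle-treated spheroids so lower means less viable.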

Compound	IC50 (second compound 0.1 µM) [nM]	IC50 (second compound 0.316 µM) [nM]	IC50 (second compound 1 µM) [nM]	IC50 (second compound 3.16 µM) [nM]	IC50 (second compound 10 µM) [nM]	viability, T/C [2] [%]	viability, T/C [3] [%]	viability, T/C [4] [%]	viability, T/C [5] [%]	viability, T/C [6] [%]	viability, T/C [8] [%]	viability, T/C [9] [%]	viability, T/C [10] [%]	viability, T/C [11] [%]	viability, T/C [12] [%]	viability, T/C [14] [%]	viability, T/C [15] [%]	viability, T/C [16] [%]	viability, T/C [17] [%]	viability, T/C [18] [%]	other results
CC1COCCN1c1cc(-c2ccnn2C)c2ccnc(-c3ccn[nH]3)c2n1 (stereo not given) + CC1OCC2(CCN(c3cnc(Sc4ccnc(N)c4Cl)c(N)n3)CC2)C1N	20.7	21.6	21.5	20.7	15.2	30.9	4.6	3.38	2.91	3.41	29.9	4.69	2.62	2.7	3.03	18.7	3.36	2.01	2.23	2.83	viability, T/C [1]: 82.6%; viability, T/C [7]: 90.3%; viability, T/C [13]: 113%; viability, T/C [19]: 111%; viability, T/C [20]: 14.6%; viability, T/C [21]: 3.13%; viability, T/C [22]: 1.78%; viability, T/C [23]: 1.9%; viability, T/C [24]: 2.66%; viability, T/C [25]: 72.9%; viability, T/C [26]: 10.5%; viability, T/C [27]: 4.95%; viability, T/C [28]: 4.89%; viability, T/C [29]: 2.16%; viability, T/C [30]: 3.22%
CCNC(=O)CC1N=C(c2ccc(Cl)cc2)c2cc(OC)ccc2-n2c(C)nnc21 (stereo not given) + CC1OCC2(CCN(c3cnc(Sc4ccnc(N)c4Cl)c(N)n3)CC2)C1N	5830	1050	338	155	51	92.5	104	144	92.7	66	108	121	103	50.6	26.5	97.6	128	52.2	16.2	14	viability, T/C [31]: 37%; viability, T/C [32]: 16.8%; viability, T/C [33]: 8.15%; viability, T/C [20]: 109%; viability, T/C [21]: 67.8%; viability, T/C [22]: 20.9%; viability, T/C [23]: 7.45%; viability, T/C [24]: 4.82%; viability, T/C [34]: 4.45%; viability, T/C [26]: 64.2%; viability, T/C [27]: 30%; viability, T/C [28]: 9.5%; viability, T/C [29]: 4.12%; viability, T/C [30]: 3.89%; viability, T/C [35]: 2.6%
Cn1nccc1Nc1nccc(-c2cc3c(s2)C(C)(C)N(CCN2CCOCC2)C3=O)n1 + CC1OCC2(CCN(c3cnc(Sc4ccnc(N)c4Cl)c(N)n3)CC2)C1N	306	219	224	176	77.4	106	107	48.3	9.06	4.04	104	114	22.5	7.68	2.95	106	114	24.3	4.22	2.3	viability, T/C [31]: 5.66%; viability, T/C [32]: 4.77%; viability, T/C [33]: 3.66%; viability, T/C [20]: 118%; viability, T/C [21]: 85.6%; viability, T/C [22]: 13%; viability, T/C [23]: 2.81%; viability, T/C [24]: 1.49%; viability, T/C [34]: 2.19%; viability, T/C [26]: 86.8%; viability, T/C [27]: 39.5%; viability, T/C [28]: 5.87%; viability, T/C [29]: 2.69%; viability, T/C [30]: 1.11%; viability, T/C [35]: 1.69%
CC(=O)OC12COC1CC(O)C1(C)C(=O)C(O)C3=C(C)C(OC(=O)C(O)C(NC(=O)OC(C)(C)C)c4ccccc4)CC(O)(C(OC(=O)c4ccccc4)C21)C3(C)C (stereo not given) + CNCc1ccccc1-c1csc(C(C)Nc2nc(C)nc3cc(OC)c(OC)cc23)c1	< 10	< 10	< 10	< 10	< 10	2.89	2.72	2.61	2.94	3.13	2.44	2.68	2.5	2.71	3.02	3.7	3.39	3.25	3.43	3.79	viability, T/C [1]: 4.85%; viability, T/C [7]: 4.19%; viability, T/C [13]: 4.69%; viability, T/C [19]: 6.31%; viability, T/C [20]: 0.05%; viability, T/C [21]: 0.02%; viability, T/C [22]: 0.03%; viability, T/C [23]: 0.05%; viability, T/C [24]: 3%; viability, T/C [25]: 0.13%; viability, T/C [26]: 0.1%; viability, T/C [27]: 0.08%; viability, T/C [28]: 0.33%; viability, T/C [29]: 3.35%; viability, T/C [30]: 0.58%
